Measurements: paper PMC7529893, “Structural basis for substrate recognition and chemical inhibition of oncogenic MAGE ubiquitin ligases” (Nature Communications, 2020)

Target: T1, MAGE-A11:PCF11 interaction (GST-MAGE-A11 and FAM-PCF11_4) (Homo sapiens, UniProt P43364)
T1 construct: GST-MAGE-A11 MHD (human MAGE-A11 MHD amino acid 218-429); made in house; host or cells: E. coli BL21(DE3)
T1 sequence (P43364 218-429): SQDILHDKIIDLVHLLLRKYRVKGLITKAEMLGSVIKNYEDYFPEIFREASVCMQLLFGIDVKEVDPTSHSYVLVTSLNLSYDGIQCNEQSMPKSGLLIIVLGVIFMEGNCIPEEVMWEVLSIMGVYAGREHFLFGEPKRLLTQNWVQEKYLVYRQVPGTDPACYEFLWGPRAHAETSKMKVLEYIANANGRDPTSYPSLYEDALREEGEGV
Experiment: TR-FRET primary / single point screen at 15 µM
Type: binding
Procedure, shortened: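 TR-FRET 520/490 nm emission ratio was read after 90 min at room temperature. Wells held 5 nM GST-MAGE-A11, 5 nM Tb-anti-GST, 200 nM FAM-PCF11_4 and 15 µM compound in Tris pH 7.5 buffer with MgCl2, BSA and DTT. %Inhibition was scaled to DMSO and minus-MAGE-A11 controls.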

[1] = single point TR-FRET screening of 797 quinoline compounds against MAGE-A11:PCF11
[2] = single point TR-FRET screening of quinoline compounds against MAGE-A11:PCF11, 15 µM

Row | SMILES | percent inhibition (TR-FRET) [1] | percent inhibition (TR-FRET) [2]
1 | CCN1CCN(c2c(C(=O)c3ccccc3)cnc3ccc(OC)cc23)CC1 [SJ000247365] | -0.2733 | 
2 | CCN1CCN(c2c(S(=O)(=O)c3ccc(Cl)cc3)cnc3cc(OC)c(OC)cc23)CC1 [SJ000083970] | -6.809 | 
3 | CCCN(CCCNc1c2ccc(Cl)cc2nc2ccc(OC)cc12)Cc1nc2ccccc2s1 [SJ000522969] |  | -68.773
4 | Clc1ccc2c(NCCCN(Cc3ccccc3)Cc3ccncc3)ccnc2c1 [SJ000312679] |  | -5.573
5 | CCCCCNCCCNc1ccnc2cc(Cl)ccc12 [SJ000523057] |  | 25.8183
6 | FC(F)(F)Oc1ccc(CN(CCCNc2ccnc3cc(Cl)ccc23)Cc2ccccc2)cc1 [SJ000520460] |  | 25.0481
7 | c1coc(CNCCCNc2ccnc3cc(C4CCCCC4)ccc23)c1 [SJ000311262] |  | 32.9599
8 | Cc1ccc(S(=O)(=O)c2cnc3ccc(F)cc3c2N2CCN(c3ccccc3)CC2)cc1C [SJ000117052] | -16.9013 | 
9 | Clc1ccc2c(NC3CCN(Cc4ccccc4)CC3)ccnc2c1 [SJ000357524] | 6.554 | 
10 | CCCN(CCCNc1c2ccc(Cl)cc2nc2ccc(OC)cc12)Cc1ccc2c(c1)OCO2 [SJ000520940] | -193.541 | 
11 | FC(F)(F)c1ccc2c(NCCCNCc3csc4ccccc34)ccnc2c1 [SJ000521061] |  | 41.8599
12 | COc1ccc2nc3cc(Cl)ccc3c(NCCCNCc3cc(F)ccc3OC)c2c1 [SJ000520993] | -365.36 | 
13 | CCOc1ccc2ncc(S(=O)(=O)c3ccc(C)cc3)c(N3CCN(c4ccc(F)cc4)CC3)c2c1 [SJ000117060] | -11.0715 | 
14 | CCCN(CCCNc1ccnc2cc(Cl)ccc12)Cc1c2ccccc2cc2ccccc12 [SJ000522762] |  | 15.4935
15 | COc1ccc2nc3cc(Cl)ccc3c(NCCCNCc3cccc(C(F)(F)F)c3)c2c1 [SJ000520990] | -408.139 | 
16 | CCN(CCO)CCCC(C)Nc1ccnc2cc(Cl)ccc12 (stereo not shown) [SJ000286026] | 3.702 | 
17 | COC(=O)CCCCCN(CCCCNc1ccnc2cc(Cl)ccc12)Cc1ccccc1 [SJ000520432] | 23.5757 | 
18 | Cc1ccc(S(=O)(=O)c2cnc3ccc(F)cc3c2N2CCN(C)CC2)cc1C [SJ000247344] | -7.6267 | 
19 | CCOc1ccc2ncc(C(=O)c3ccc(OC)cc3)c(N3CCN(C)CC3)c2c1 [SJ000247277] | -18.955 | 
20 | CCCCCN(CCCCNc1ccnc2cc(Cl)ccc12)Cc1ccccc1 [SJ000361196] | 19.0968 | 
21 | COc1ccc2ncc(S(=O)(=O)c3ccc(C)cc3)c(N3CCN(c4ccccc4F)CC3)c2c1 [SJ000117076] | 6.02 | 
22 | CCCN(CCCNc1c2ccc(Cl)cc2nc2ccc(OC)cc12)Cc1ccc(Cl)c(C(F)(F)F)c1 [SJ000522974] |  | 16.3588

Row | SMILES | percent inhibition (TR-FRET) [1] | percent inhibition (TR-FRET) [2]
23 | CCCN(CCCNc1ccnc2cc(C(F)(F)F)ccc12)Cc1c(C)cc(C)cc1C [SJ000361264] |  | 19.9321
24 | FC(F)(F)c1ccc2c(NCCCNCc3cccnc3)ccnc2c1 [SJ000521042] |  | 15.0359
25 | COc1ccc2nc3cc(Cl)ccc3c(NCCCNCc3sccc3C)c2c1 [SJ000361094] | -321.32 | 
26 | Cc1c(CNCCCNc2ccnc3cc(Cl)ccc23)c(=O)n(-c2ccccc2)n1C [SJ000523058] |  | 5.584
27 | CCCN(CCCNc1c2ccc(Cl)cc2nc2ccc(OC)cc12)Cc1cc(OC)ccc1O [SJ000520933] | -150.831 | 
28 | Cc1ccc(S(=O)(=O)c2cnc3ccc(Cl)cc3c2N2CCN(c3ccccc3)CC2)cc1 [SJ000117050] | -3.321 | 
29 | CCCN(CCCNc1ccnc2cc(C(F)(F)F)ccc12)Cc1cc(C(F)(F)F)ccc1OC [SJ000520486] |  | 8.188
30 | CCCN(CCCNc1ccnc2cc(Cl)ccc12)Cc1c(F)cccc1OC [SJ000357499] |  | 19.4021
31 | CCN1CCN(c2c(S(=O)(=O)c3ccc(C)cc3)cnc3ccc(Cl)cc23)CC1 [SJ000083966] | -4.358 | 
32 | c1ccc(Cc2ccc3c(NCCCNCc4ccco4)ccnc3c2)cc1 [SJ000311306] |  | 64.537
33 | Cc1ccc(S(=O)(=O)c2cnc3ccccc3c2N2CCN(c3ccc(F)cc3)CC2)cc1 [SJ000117057] | -20.6111 | 
34 | CCc1ccc(CN(CCCNc2ccnc3cc(Cl)ccc23)Cc2ccccc2)cc1 [SJ000520442] |  | 18.8867
35 | CCOC(=O)c1cnc2ccc(OCC)cc2c1N1CCN(C)CC1 [SJ000279526] | -7.064 | 
36 | COc1ccc2ncc(S(=O)(=O)c3ccccc3)c(N3CCN(c4ccccc4)CC3)c2c1 [SJ000083974] | -132.977 | 
37 | CCCN(CCCNc1c2ccc(Cl)cc2nc2ccc(OC)cc12)Cc1cc2ccccc2s1 [SJ000522962] |  | -21.5824
38 | Clc1ccc2c(NCCCNCc3ccccn3)ccnc2c1 [SJ000523050] |  | 4.744
39 | CCc1ccc(S(=O)(=O)c2cnc3ccccc3c2N2CCN(c3ccccc3)CC2)cc1 [SJ000117053] | -21.2074 | 
40 | Oc1c(F)cc(F)cc1CN(CCCCNc1ccnc2cc(Cl)ccc12)Cc1ccccc1 [SJ000357506] | 30.6494 | 
41 | CC(C)CCN(CCCNc1ccnc2cc(Cl)ccc12)Cc1ccccc1 [SJ000311183] |  | 2.673
42 | COc1ccc2nc3cc(Cl)ccc3c(NCCCNCCC(C)c3ccccc3)c2c1 (stereo not shown) [SJ000523027] | -340.253 | 
43 | CCCN(CCCNc1ccnc2cc(C(F)(F)F)ccc12)CC1CCOC1 (stereo not shown) [SJ000575190] |  | 1.787
44 | CCOc1ccc2ncc(S(=O)(=O)c3ccccc3)c(N3CCN(Cc4ccccc4)CC3)c2c1 [SJ000247249] | -15.9076 | 

Row | SMILES | percent inhibition (TR-FRET) [1] | percent inhibition (TR-FRET) [2]
45 | CCCN(CCCNc1ccnc2cc(Cl)ccc12)Cc1ccncc1 [SJ000357449] |  | 9.295
46 | Cc1cc(NC(=O)CN[C@H]2CCN(Cc3ccccc3)C2)c2ccccc2n1 [SJ000832405] | 4.364 | 
47 | CC(CCN(CCCNc1ccnc2cc(Cl)ccc12)Cc1ccccc1)c1ccccc1 (stereo not shown) [SJ000311184] |  | 17.3464
48 | CCN1CCN(c2c(S(=O)(=O)c3ccc(C)cc3)cnc3ccc(C)cc23)CC1 [SJ000083961] | 0.2213 | 
49 | CCCN(CCCNc1ccnc2cc(Cl)ccc12)Cc1ccc(-c2ccccc2)cc1 [SJ000523039] |  | 30.2293
50 | CCCN(CCCNc1ccnc2cc(C(F)(F)F)ccc12)Cc1cccc(OC)c1O [SJ000361260] |  | 15.4935
51 | COc1ccc2nc3cc(Cl)ccc3c(NCCCNCc3c(F)cccc3C(F)(F)F)c2c1 [SJ000520999] | -116.734 | 
52 | CN(C)c1ccc(CN2CCC(Nc3ccnc4cc(Cl)ccc34)CC2)cc1 [SJ000523102] | 13.0905 | 
53 | CCCN(CCCNc1ccnc2cc(C(F)(F)F)ccc12)Cc1ccsc1 [SJ000361254] |  | 28.8755
54 | CCCN(CCCNc1c2ccc(Cl)cc2nc2ccc(OC)cc12)Cc1ccc([N+](=O)[O-])o1 [SJ000523022] | -329.654 | 
55 | C=CCOCC(O)CN1CCN(c2cc(C)nc3ccccc23)CC1 (stereo not shown) [SJ000227652] | -0.207 | 
56 | O=[N+]([O-])c1ccccc1CN(CCCNc1ccnc2cc(Cl)ccc12)Cc1ccccc1 [SJ000361177] |  | 16.421
57 | CCN1CCN(c2c(S(=O)(=O)c3ccc(Cl)cc3)cnc3ccccc23)CC1 [SJ000247367] | -2.261 | 
58 | CCCN(CCCNc1c2ccc(Cl)cc2nc2ccc(OC)cc12)CC(CC)CC [SJ000520939] | -160.284 | 
59 | COc1ccc(F)cc1CN1CCC(Nc2ccnc3cc(Cl)ccc23)CC1 [SJ000357493] | 6.1527 | 
60 | CCCN(CCCNc1ccnc2cc(C(F)(F)F)ccc12)Cc1ccccc1F [SJ000361274] |  | 19.2187
61 | CCCCCCNCCCNc1ccnc2cc(C(F)(F)F)ccc12 [SJ000361124] |  | 31.6112
62 | CCCN(CCCNc1c2ccc(Cl)cc2nc2ccc(OC)cc12)Cc1ccc(F)cc1 [SJ000520946] | -141.659 | 
63 | O=S(=O)(c1ccc(Cl)cc1)c1cnc2ccc(F)cc2c1N1CCN(c2ccccc2)CC1 [SJ000117055] | 2.112 | 
64 | Clc1ccc2c(NCCCCN(Cc3ccccc3)Cc3ccco3)ccnc2c1 [SJ000312681] | 12.0487 | 
